ChEMBL document CHEMBL5143557, “Synthesis and biological evaluation of 3β-O-neoglycosides of caudatin and its analogues as potential anticancer agents” (Bioorg Med Chem, 2022)

Assays:
MCF7 = assay: Antiproliferative activity against human MCF7 cells after 48 hrs by MTT assay; type: functional, cell-based; settings: MCF7, 48 h
HCT-116 = assay: Antiproliferative activity against human HCT-116 cells after 48 hrs by MTT assay; type: functional, cell-based; settings: HCT-116, 48 h
HeLa = assay: Antiproliferative activity against human HeLa cells after 48 hrs by MTT assay; type: functional, cell-based
HepG2 [1] = assay: Antiproliferative activity against human HepG2 cells after 48 hrs by MTT assay; type: functional, cell-based; settings: HepG2, 48 h
HepG2 [2] = assay: Induction of apoptosis in human HepG2 cells assessed as live cells at 5 uM measured after 48 hrs by annexin-V and PI staining based flow cytometry (reference value: 91%); type: functional
HepG2 [3] = assay: Induction of apoptosis in human HepG2 cells assessed as early apoptotic cells at 5 uM measured after 48 hrs by annexin-V and PI staining based flow cytometry (reference value: 4.11%); type: functional
HepG2 [4] = assay: Induction of apoptosis in human HepG2 cells assessed as late apoptotic cells at 5 uM measured after 48 hrs by annexin-V and PI staining based flow cytometry (reference value: 4.52%); type: functional
HepG2 [5] = assay: Induction of apoptosis in human HepG2 cells assessed as necrotic cells at 5 uM measured after 48 hrs by annexin-V and PI staining based flow cytometry (reference value: 0.363%); type: functional
HepG2 [6] = assay: Induction of apoptosis in human HepG2 cells assessed as live cells at 10 uM measured after 48 hrs by annexin-V and PI staining based flow cytometry (reference value: 91%); type: functional
HepG2 [7] = assay: Induction of apoptosis in human HepG2 cells assessed as early apoptotic cells at 10 uM measured after 48 hrs by annexin-V and PI staining based flow cytometry (reference value: 4.11%); type: functional
HepG2 [8] = assay: Induction of apoptosis in human HepG2 cells assessed as late apoptotic cells at 10 uM measured after 48 hrs by annexin-V and PI staining based flow cytometry (reference value: 4.52%); type: functional
HepG2 [9] = assay: Induction of apoptosis in human HepG2 cells assessed as necrotic cells at 10 uM measured after 48 hrs by annexin-V and PI staining based flow cytometry (reference value: 0.363%); type: functional
HepG2 [10] = assay: Induction of apoptosis in human HepG2 cells assessed as live cells at 20 uM measured after 48 hrs by annexin-V and PI staining based flow cytometry (reference value: 91%); type: functional
HepG2 [11] = assay: Induction of apoptosis in human HepG2 cells assessed as early apoptotic cells at 20 uM measured after 48 hrs by annexin-V and PI staining based flow cytometry (reference value: 4.11%); type: functional
HepG2 [12] = assay: Induction of apoptosis in human HepG2 cells assessed as late apoptotic cells at 20 uM measured after 48 hrs by annexin-V and PI staining based flow cytometry (reference value: 4.52%); type: functional
HepG2 [13] = assay: Induction of apoptosis in human HepG2 cells assessed as necrotic cells at 20 uM measured after 48 hrs by annexin-V and PI staining based flow cytometry (reference value: 0.363%); type: functional
HepG2 [14] = assay: Cell cycle arrest in human HepG2 cells assessed as number of cells at G1 phase at 5 uM after 48 hrs by flow cytometry (reference value: 57.68%); type: functional
HepG2 [15] = assay: Cell cycle arrest in human HepG2 cells assessed as number of cells at S phase at 5 uM after 48 hrs by flow cytometry (reference value: 24.31%); type: functional
HepG2 [16] = assay: Cell cycle arrest in human HepG2 cells assessed as number of cells at G2 phase at 5 uM after 48 hrs by flow cytometry (reference value: 16.28%); type: functional
HepG2 [17] = assay: Cell cycle arrest in human HepG2 cells assessed as number of cells at G1 phase at 10 uM after 48 hrs by flow cytometry (reference value: 57.68%); type: functional
HepG2 [18] = assay: Cell cycle arrest in human HepG2 cells assessed as number of cells at S phase at 10 uM after 48 hrs by flow cytometry (reference value: 24.31%); type: functional
HepG2 [19] = assay: Cell cycle arrest in human HepG2 cells assessed as number of cells at G2 phase at 10 uM after 48 hrs by flow cytometry (reference value: 16.28%); type: functional
HepG2 [20] = assay: Cell cycle arrest in human HepG2 cells assessed as number of cells at G1 phase at 20 uM after 48 hrs by flow cytometry (reference value: 57.68%); type: functional
HepG2 [21] = assay: Cell cycle arrest in human HepG2 cells assessed as number of cells at S phase at 20 uM after 48 hrs by flow cytometry (reference value: 24.31%); type: functional
HepG2 [22] = assay: Cell cycle arrest in human HepG2 cells assessed as number of cells at G2 phase at 20 uM after 48 hrs by flow cytometry (reference value: 16.28%); type: functional

Structure (SMILES): CC(=O)O[C@@H]1[C@@H](OC(C)=O)[C@H](C)O[C@@H](O[C@H]2CC[C@@]3(C)C(=CC[C@]4(O)[C@@H]3C[C@@H](OC(=O)/C=C/c3ccccc3)[C@@]3(C)[C@]4(O)CC[C@@]3(O)[C@H](C)OC(=O)c3cccnc3)C2)[C@@H]1OC(C)=O
- IC50 (MCF7): > 100 µM
- IC50 (HCT-116): 71.4 µM
- IC50 (HeLa): > 100 µM
- IC50 (HepG2 [1]): 69.1 µM

Structure (SMILES): CC(=O)OC[C@@H]1O[C@H](O[C@H]2CC[C@@]3(C)C(=CC[C@]4(O)[C@@H]3C[C@@H](OC(=O)/C=C(\C)C(C)C)[C@@]3(C)[C@]4(O)CC[C@@]3(O)C(C)=O)C2)[C@@H](OC(C)=O)[C@H](OC(C)=O)[C@H]1OC(C)=O
- IC50 (MCF7): 9.04 µM
- IC50 (HCT-116): 5.64 µM
- IC50 (HeLa): 7.6 µM
- IC50 (HepG2 [1]): 3.11 µM
- Activity (HepG2 [2]): 83.5%
- Activity (HepG2 [3]): 11.3%
- Activity (HepG2 [4]): 5.07%
- Activity (HepG2 [5]): 0.068%
- Activity (HepG2 [6]): 57%
- Activity (HepG2 [7]): 35.6%
- Activity (HepG2 [8]): 7.26%
- Activity (HepG2 [9]): 0.096%
- Activity (HepG2 [10]): 18%
- Activity (HepG2 [11]): 76.5%
- Activity (HepG2 [12]): 5.34%
- Activity (HepG2 [13]): 0.184%
- Activity (HepG2 [14]): 51.38%
- Activity (HepG2 [15]): 28.72%
- Activity (HepG2 [16]): 16.95%
- Activity (HepG2 [17]): 46.89%
- Activity (HepG2 [18]): 34.6%
- Activity (HepG2 [19]): 15.75%
- Activity (HepG2 [20]): 41.76%
- Activity (HepG2 [21]): 38.82%
- Activity (HepG2 [22]): 15.99%

Structure (SMILES): CC(=O)[C@]1(O)CC[C@@]2(O)[C@]1(C)[C@H](OC(=O)/C=C(\C)C(C)C)C[C@@H]1[C@@]3(C)CC[C@H](O)CC3=CC[C@]12O [CAUDATIN]
- IC50 (MCF7): > 100 µM
- IC50 (HCT-116): 64.1 µM
- IC50 (HeLa): > 100 µM
- IC50 (HepG2 [1]): 65.9 µM

Structure (SMILES): C[C@H](OC(=O)c1cccnc1)[C@]1(O)CC[C@@]2(O)[C@]1(C)[C@H](OC(=O)/C=C/c1ccccc1)C[C@@H]1[C@@]3(C)CC[C@H](O)CC3=CC[C@]12O [GAGAMININ]
- IC50 (MCF7): > 100 µM
- IC50 (HCT-116): 69.9 µM
- IC50 (HeLa): 96.4 µM
- IC50 (HepG2 [1]): 65 µM
